The text below walks through data of ChEMBL document CHEMBL4251700, “Novel Staphyloxanthin Inhibitors with Improved Potency against Multidrug Resistant Staphylococcus aureus” (ACS Med Chem Lett, 2018).

Numbering of substitutions follows the chain as printed. Activity calls are given as the source filed them. No cut-off for these calls is given here.

For series [1], the system named is Staphylococcus aureus. In words: Antibacterial activity against Staphylococcus aureus Newman infected in BALB/c mouse assessed as reduction of bacterial burden in liver at 0.4 mg, ip bid administered at 12 hrs prior to bacterial infection dosed at 12 intervals for 4.5 days relative to control. In kind it is functional. Also on record: scale not given: the % may be the effect or the level left.

The test system of series [2] is Staphylococcus aureus. Put plainly: Growth inhibition of methicillin-resistant Staphylococcus aureus USA400 MW2 at 0.2 mM incubated overnight measured at 30 mins interval. In kind it is organism-based. The settings on record: 0.5 h, 200 µM.
The subject of series [3] is Staphylococcus aureus. Put plainly: Antibacterial activity against linezolid-resistant Staphylococcus aureus NRS271 infected in BALB/c mouse assessed as reduction of bacterial burden in liver at 0.4 mg, ip bid administered at 12 hrs prior to bacterial infection dosed at 12 intervals for 4.5 days. Type of series: functional, organism-based.
Series [4] deals with Staphylococcus aureus. Put plainly: Antibacterial activity against vancomycin-intermediate Staphylococcus aureus Mu50 infected in BALB/c mouse assessed as reduction of bacterial burden in heart at 0.4 mg, ip bid for 3.5 days administered 6 hrs post bacterial infection measured 84 hrs post infection relative to control. In kind it is functional. Also on record: scale not given: the % may be the effect or the level left.

Series [5] deals with T1, 4,4'-diapophytoene desaturase (4,4'-diaponeurosporene-forming) (Staphylococcus aureus (strain Newman), UniProt O07855).
T1 sequence (O07855 whole entry): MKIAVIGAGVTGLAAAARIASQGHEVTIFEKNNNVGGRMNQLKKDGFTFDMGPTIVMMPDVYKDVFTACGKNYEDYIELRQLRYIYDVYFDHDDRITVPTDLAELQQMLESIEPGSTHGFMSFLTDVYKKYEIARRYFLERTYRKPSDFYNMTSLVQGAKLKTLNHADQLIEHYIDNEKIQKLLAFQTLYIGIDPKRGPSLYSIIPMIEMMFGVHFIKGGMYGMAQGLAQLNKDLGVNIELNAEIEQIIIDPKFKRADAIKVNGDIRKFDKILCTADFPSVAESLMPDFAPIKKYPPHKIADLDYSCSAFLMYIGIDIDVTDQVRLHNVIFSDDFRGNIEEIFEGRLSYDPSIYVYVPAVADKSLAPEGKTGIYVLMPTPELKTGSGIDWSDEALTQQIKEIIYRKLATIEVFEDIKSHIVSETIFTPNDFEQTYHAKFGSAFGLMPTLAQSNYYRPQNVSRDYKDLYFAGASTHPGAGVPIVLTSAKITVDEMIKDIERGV
Put plainly: Inhibition of CrtN in linezolid-resistant Staphylococcus aureus NRS271 assessed as reduction in staphyloxanthin levels after 48 hrs by spectrophotometric method-based pigment inhibition assay.

The subject of series [6] is Staphylococcus aureus. Put plainly: Antibacterial activity against linezolid-resistant Staphylococcus aureus NRS271 infected in BALB/c mouse assessed as reduction of bacterial burden in heart at 0.4 mg, ip bid for 3.5 days administered 6 hrs post bacterial infection measured 84 hrs post infection. In kind it is functional. On the set-up: scale not given: the % may be the effect or the level left.

Series [7] deals with Staphylococcus aureus. In words: Growth inhibition of Staphylococcus aureus Newman at 0.2 mM incubated overnight measured at 30 mins interval. Type of series: organism-based. To be noted: 0.5 h, 200 µM.
For series [8], the target named is Voltage-gated inwardly rectifying potassium channel KCNH2 (Homo sapiens, UniProt Q12809). In words: Inhibition of recombinant human ERG expressed in CHO cells at -80 mV holding potential measured after 3 minutes by automated whole cell patch clamp Qpatch method. Type of series: cell-based. In general terms: In patch-clamp work, channel activity is measured electrically.

The test system of series [9] is Staphylococcus aureus. In words: Antibacterial activity against linezolid-resistant Staphylococcus aureus NRS271 infected in BALB/c mouse assessed as reduction of bacterial burden in heart at 0.4 mg, ip bid administered at 24 hrs prior to bacterial infection dosed at 12 intervals for 4.5 days.
In series [10] the test system is Staphylococcus aureus. Put plainly: Antibacterial activity against linezolid-resistant Staphylococcus aureus NRS271 infected in BALB/c mouse assessed as log reduction of colony forming units in liver at 0.1 mg, ip bid for 3.5 days administered 6 hrs post bacterial infection measured 84 hrs post infection. Type of series: functional.
The subject of series [11] is Staphylococcus aureus. Put plainly: Antibacterial activity against vancomycin-intermediate Staphylococcus aureus Mu50 infected in BALB/c mouse assessed as reduction of bacterial burden in liver at 0.1 mg, ip bid administered at 12 hrs prior to bacterial infection dosed at 12 intervals for 4.5 days. In kind it is functional, organism-based.
Series [12] concerns Staphylococcus aureus. Put plainly: Antibacterial activity against linezolid-resistant Staphylococcus aureus NRS271 infected in BALB/c mouse assessed as reduction of bacterial burden in heart at 0.1 mg, ip bid for 3.5 days administered 6 hrs post bacterial infection measured 84 hrs post infection. Type of series: functional. Also on record: scale not given: the % may be the effect or the level left.

In series [13] the test system is Staphylococcus aureus. Put plainly: Induction of sensitization to immune clearance towards Staphylococcus aureus USA400 MW2 infected in human whole blood assessed as bacterial killing by measuring bacterial survival after 6 hrs by serial dilution method relative to control. Type of series: functional.
Series [14] relates to Trichophyton mentagrophytes. Put plainly: Antifungal activity against Trichophyton mentagrophytes after 7 days. Type of series: functional, organism-based.
The subject of series [15] is Staphylococcus aureus. In words: Induction of sensitization to immune clearance towards Staphylococcus aureus Newman infected in human whole blood assessed as bacterial killing by measuring bacterial survival after 6 hrs by serial dilution method relative to control. In kind it is functional.
For series [16], the system named is Staphylococcus aureus. In words: Antibacterial activity against vancomycin-intermediate Staphylococcus aureus Mu50 infected in BALB/c mouse assessed as reduction of bacterial burden in heart at 0.1 mg, ip bid for 3.5 days administered 6 hrs post bacterial infection measured 84 hrs post infection relative to control. Type of series: functional. On the set-up: scale not given: the % may be the effect or the level left.

The target in series [17] is T2, 4,4'-diapophytoene desaturase (4,4'-diaponeurosporene-forming) (Staphylococcus aureus (strain Mu50 / ATCC 700699), UniProt Q99R76).
T2 sequence (Q99R76 whole entry): T1 sequence (O07855 whole entry)
In words: Inhibition of CrtN in vancomycin-intermediate Staphylococcus aureus Mu50 assessed as reduction in staphyloxanthin levels after 48 hrs by spectrophotometric method-based pigment inhibition assay. Also on record: species or system Staphylococcus aureus subsp. aureus Mu50.

Series [18] deals with Staphylococcus aureus. In words: Antibacterial activity against Staphylococcus aureus Newman infected in BALB/c mouse assessed as reduction of bacterial burden in heart at 0.4 mg, ip bid administered at 12 hrs prior to bacterial infection dosed at 12 intervals for 4.5 days relative to control. Also on record: scale not given: the % may be the effect or the level left. Type of series: functional.

Series [19] has as its system Trichophyton verrucosum. In words: Antifungal activity against Trichophyton verrucosum after 7 days. Type of series: functional, organism-based.
The target of series [20] is T3, 4,4'-diapophytoene desaturase (4,4'-diaponeurosporene-forming) (Staphylococcus aureus (strain MW2)) (UniProt Q8NUQ6).
T3 sequence (whole entry): T1 sequence (O07855 whole entry) with R500Q
In words: Inhibition of CrtN in Staphylococcus aureus USA300 LAC assessed as H2O2-induced bacterial death by measuring reduction in bacterial survival at 1 uM preincubated for 24 hrs followed by H2O2 addition measured after 30 mins by serial dilution method. The settings on record: Staphylococcus aureus subsp. aureus USA300.

Voltage-gated inwardly rectifying potassium channel KCNH2, sequence (Q12809 whole entry): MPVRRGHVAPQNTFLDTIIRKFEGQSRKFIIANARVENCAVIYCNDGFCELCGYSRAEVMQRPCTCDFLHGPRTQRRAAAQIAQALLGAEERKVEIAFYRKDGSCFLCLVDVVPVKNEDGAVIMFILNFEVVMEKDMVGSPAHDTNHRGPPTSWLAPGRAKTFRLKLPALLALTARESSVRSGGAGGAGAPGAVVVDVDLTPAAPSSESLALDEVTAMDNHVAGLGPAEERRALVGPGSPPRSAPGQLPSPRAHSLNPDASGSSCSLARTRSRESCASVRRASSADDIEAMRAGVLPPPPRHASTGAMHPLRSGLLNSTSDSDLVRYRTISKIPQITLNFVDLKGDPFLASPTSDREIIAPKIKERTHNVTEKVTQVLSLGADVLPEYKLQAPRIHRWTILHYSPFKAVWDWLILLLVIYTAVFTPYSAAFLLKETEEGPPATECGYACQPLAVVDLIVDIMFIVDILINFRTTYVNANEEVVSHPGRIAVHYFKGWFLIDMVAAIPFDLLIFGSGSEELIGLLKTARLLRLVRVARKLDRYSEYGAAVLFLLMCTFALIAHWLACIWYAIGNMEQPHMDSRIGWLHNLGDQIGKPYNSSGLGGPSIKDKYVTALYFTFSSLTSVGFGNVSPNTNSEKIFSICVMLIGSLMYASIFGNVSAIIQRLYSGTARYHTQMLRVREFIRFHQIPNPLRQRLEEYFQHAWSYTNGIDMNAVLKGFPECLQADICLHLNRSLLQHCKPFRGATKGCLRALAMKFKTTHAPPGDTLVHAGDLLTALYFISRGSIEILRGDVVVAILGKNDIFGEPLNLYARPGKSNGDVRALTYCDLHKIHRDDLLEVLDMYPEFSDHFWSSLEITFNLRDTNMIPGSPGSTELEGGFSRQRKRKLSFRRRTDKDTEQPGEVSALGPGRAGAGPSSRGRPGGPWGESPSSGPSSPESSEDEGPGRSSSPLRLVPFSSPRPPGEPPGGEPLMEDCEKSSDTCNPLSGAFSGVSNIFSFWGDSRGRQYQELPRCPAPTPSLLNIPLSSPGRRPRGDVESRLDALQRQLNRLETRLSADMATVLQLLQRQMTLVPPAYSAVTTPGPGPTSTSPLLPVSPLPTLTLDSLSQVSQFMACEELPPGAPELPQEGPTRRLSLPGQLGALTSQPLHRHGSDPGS

With `CN(C/C=C/C=C/c1ccc(C(F)(F)F)cc1)Cc1ccc2c(c1)OCCO2.Cl`, the Activity is given as 86.7% in series [1]; 99% in series [4]; over 90% in series [6]; “<=0.75 log10CFU” in series [10]; over 90% in series [12]; 99% in series [16]. Further, the Activity in series [18] came to 89.01%. Besides, the “growth inhibition (GI)” value in series [2] and in series [7] was “Non-Toxic” in each case. Also, the result in series [3], in series [9] and in series [11] was Active. Also, the IC50 (in general, the concentration at which inhibition is half-maximal) in [5] is 0.6 nM; in [8], 12100 nM; in [17] it was under 0.1 nM. Further, the Survival in series [13] and in [15] was under 0.5% in each case. Moreover, the outcome in series [14] and in series [19] was inactive. The inhibition entry in series [20] is “Active”.
